Test system: stored potato tubers (Solanum tuberosum, variety: Columbia)
Experiment: Visual assessment of sprout development on stored potato tubers after spray application on a roller table
Format: in vivo
Method: Application was done on a roller table and were applied with a spray application covering the outside of the tubers homogeneously with the spray solution containing with the respective dose of compound of formula (I) and depending on the treatment with the additional MSO (methylated seed oil) as indicated in the following tables. The spray solutions were prepared to match an equivalent of 10 L water per ton potato.

## C=C[C@]1(C(=O)N[C@H]2CO[C@@H](C(=O)OC)C2)CC(c2cc(F)cc(F)c2)=NO1 (relative stereo) [compound of formula (I), methyl(2R*,4R*)-4-[[(5S)-3-(3,5-difluorophenyl)-5-vinyl-4H-isoxazole-5-carbonyl]amino]tetrahydrofuran-2-carboxylate]
0.2 g/to, MSO 0.5 L/to, SC 200, 0 DAA
  Relative inhibition of potato sprouting: 0%
0.2 g/to, MSO 0.5 L/to, SC 200, 71 DAA
  Relative inhibition of potato sprouting: 67%
2 g/to, MSO 0.5 L/to, SC 200, 0 DAA
  Relative inhibition of potato sprouting: 0%
2 g/to, MSO 0.5 L/to, SC 200, 71 DAA
  Relative inhibition of potato sprouting: 73%
2 g/to, no MSO, SC 200, 0 DAA
  Relative inhibition of potato sprouting: 0%
2 g/to, no MSO, SC 200, 28 DAA
  Relative inhibition of potato sprouting: 30%
2 g/to, no MSO, SC 200, 71 DAA
  Relative inhibition of potato sprouting: 18%
20 g/to, MSO 0.5 L/to, SC 200, 0 DAA
  Relative inhibition of potato sprouting: 0%
20 g/to, MSO 0.5 L/to, SC 200, 71 DAA
  Relative inhibition of potato sprouting: 93%
20 g/to, no MSO, SC 200, 0 DAA
  Relative inhibition of potato sprouting: 0%
20 g/to, no MSO, SC 200, 28 DAA
  Relative inhibition of potato sprouting: 45%
20 g/to, no MSO, SC 200, 71 DAA
  Relative inhibition of potato sprouting: 30%
200 g/to, MSO 0.5 L/to, SC 200, 0 DAA
  Relative inhibition of potato sprouting: 0%
200 g/to, MSO 0.5 L/to, SC 200, 71 DAA
  Relative inhibition of potato sprouting: 95%
